# Measurements: paper PMC6309140, “Synthesis and Evaluation of a New Type of Small Molecule Epigenetic Modulator Containing Imidazo[1,2-b][1,2,4]triazole Motif” (Frontiers in Chemistry, 2018)
# Tests used:
# [1] = tested on: EGFP reporter gene silenced by DNA methylation (B2-17 cells); test: Compound effective assay: derepression of EGFP reporter in B2-17 reporter cells (image-based, titration); type: cell-based; conditions: for Emax: 72 h, read-out: Maximal RGFP% (maximal percentage of EGFP+ cells in the dose-response curve); for Emax / EC50: B2-17 cells, 72 h treatment; for EC50: dose-response of EGFP+ cells, read-out: EC50 (relative half maximal effect concentration)
# From the text: (§1) To identify novel small molecules targeting gene repression, we devised an image-based high-throughput screening system using the engineered HEK 293 F cell (termed as B2-17 cells) as report cell line. A chemical library containing 308,251 small molecules was screened in this system. Purposed for unbiased compound screening, this library had been used in a variety of studies (Sun et al., [2012]; Wang et al., [2013]; Dong et al., [2015]; Li et al., [2016]). Hundred and fifty eight compounds which reactivated reporter genes in more than half of cells were selected as hits. Next, we performed titration experiments for all these hits in the B2-17 cell line. The efficacy of each compound was evaluated by its maximal percentage of EGFP^+ cells in the dose-response curve (maximal RGFP) and relative half maximal effect concentration (EC50). The toxicity of the hits was also tested in parallel, measured by number of viable cells in each treatment. The assay is based on quantitative analysis of ATP, an indicator of metabolically active cells. For each compound, we calculated the relative half maximal growth inhibitory concentration (IC50), based on the abovementioned assay.
# Procedure for cell culture and establishment of the reporter cell line were reported in our previously published paper (Li et al., [2018]).
# Before plating cells, 384-well plates (ViewPlate, PerkinElmer) were coated with PDL (poly-D-lysine, Sigma). For each well, 1,300 B2-17 cells were plated by using a Matrix Wellmate microplate dispenser (Thermo Scientific). Then, 0.25 μL of compound was added to each well by using a versatile pipetting robot, the Biomek FX workstation (Beckman Coulter), to give a final compound concentration of 5 μM. After treatment for 72 h, the cell nuclei were stained by Hoechst 33342 (Sigma) before imaging.
# The cells were imaged with Opera LX (PerkinElmer, three views per well by using 10 x (air) objective lens). Images were analyzed with the Columbus system, the mean percentage of EGFP+ cells (RGFP) was obtained to extrapolate the number of EGFP expressing cells and Hoechst-stained nuclei.
# For the titration assay, the positive compounds were diluted in DMSO at concentrations ranging from 0.625 to 4 mM. Then, the B2-17 cells were treated by gradient compound and imaged as described before.
# For each compound, a dose-response series was generated by using Origin 6.0 Pro software. The dot plot was fit by a DoseResp curve and then the EC50 was calculated.
# HEK 293 F cells = test: Viability assays (CellTiter-Glo, ATP); type: cell-based; conditions: HEK293F, 72 h; viable cells by ATP quantitation, 3 days incubation; Figure 2 says B2-17 cells, method says HEK 293 F cells; read-out: IC50 (relative half maximal growth inhibitory concentration)
# From the text: as §1
# HEK 293 F cells were plated in 384-well, flat-bottom, tissue culture dishes (Corning) and treated with compounds, incubated 3 days, and assayed for viability using the CellTiter-Glo Luminescent Cell Viability Assay (Promega) according to the manufacturer's protocol. The […] with an EnSight plate reader (Perkin Elmer). Data were normalized to the untreated control (100% viability). Each treatment was tested in two independent assays, each containing 3 replicates. The titration-viability curves of each compound were also generated by using Origin 6.0 Pro software.
# p38 MAPK pathway = tested on: p38 MAPK pathway; design: method as in Li et al., 2018; conditions: multiple cell types; ref Li et al., 2018; cited from earlier work
# [2] = Water solubility (qualitative remark); type: physicochemical; conditions: 14b vs. 14a
EC50 [1],water solubility (in words) [2],SMILES,Emax [1],IC50 (HEK 293 F cells),activation of the p38 MAPK pathway (p38 MAPK pathway),activity of derepressing the EGFP reporter gene silenced by DNA methylation (in words) ([1]; compared with hit compound LX-3)
2 µM,,O=C(Cn1c2ccccc2c(=O)c2ccccc21)N/N=C/c1ccc(Sc2nc3ccccc3s2)c([N+](=O)[O-])c1 [LX-4],68%,4.2 µM,selectively activate the p38 MAPK pathway,
4.1 µM,,Cc1n[nH]c(Nc2ccc(/N=N/c3ccccc3)cc2)c1[N+](=O)[O-] [LX-5],89%,4.2 µM,selectively activate the p38 MAPK pathway,
3.4 µM,significantly increased,"Cc1cc2c(cc1C)n1nc(-c3nccs3)nc1n2CC(=O)c1ccc(Br)cc1 [14b, 1-(4-bromophenyl)-2-(6,7-dimethyl-2-(thiazol-2-yl)-4H-benzo[4,5]imidazo[1,2-b][1,2,4]triazol-4-yl)ethan-1-one]",58%,2.1 µM,,comparable with the hit compound LX-3
